Consider 17 compounds from patent US7501410B2, “Methods of inhibiting BTK and SYK protein kinases” (Roche Palo Alto LLC, priority 2006, dated 2009).

Experiment [1] deals with T1, Bruton's Tyrosine Kinase (Btk) (Homo sapiens, UniProt Q06187).
T1 construct: 5-10 nM Btk enzyme (His-tagged, full-length); His tag
Kind of experiment: Determination of IC50 of Bruton's Tyrosine Kinase (Btk) inhibition, 33P filtration assay. In kind it is biochemical. The following applies: His-tagged full-length Btk, 100 μM ATP. The source says: Determination of IC50 of Bruton's Tyrosine Kinase (Btk) Inhibition
The assay is a capture of radioactive ^33P phosphorylated product through filtration. The interactions of Btk, biotinylated SH2 peptide substrate (Src homology), and ATP lead to phosphorylation of the peptide substrate. Biotinylated product is bound streptavidin sepharose beads. All bound, radiolabeled products are detected by scintillation counter.
Plates assayed are 96-well polypropylene (Greiner) and 96-well 1.2 μm hydrophilic PVDF filter plates (Millipore). Concentrations reported here are final assay concentrations: 10-100 μM compounds in DMSO (Burdick and Jackson), 5-10 nM Btk enzyme (His-tagged, full-length), 30 μM peptide substrate (Biotin-Aca-[…]-NH2), 100 μM ATP (Sigma), 8 mM imidazole (Sigma, pH 7.2), 8 mM glycerol-2-phosphate (Sigma), 200 μM EGTA (Roche Diagnostics), 1 mM MnCl2 (Sigma), 20 mM MgCl2 (Sigma), 0.1 mg/ml BSA (Sigma), 2 mM DTT (Sigma), 1 μCi ^33P ATP (Amersham), 20% streptavidin sepharose beads (Amersham), 50 mM EDTA (Gibco), 2 M NaCl (Gibco), 2 M NaCl w/1% phosphoric acid (Gibco), microscint-20 (Perkin Elmer).
IC50 determinations are calculated from 10 data points per compound utilizing data produced from a standard 96-well plate assay template. One control compound and seven unknown inhibitors were tested on each plate and each plate was run twice. Typically, compounds were diluted in half-log starting at 100 μM and ending at 3 nM. The control compound was staurosporine. Background was counted in the absence of peptide substrate. Total activity was determined in the presence of peptide substrate. The following protocol was used to determine BTK inhibition.
1) Sample preparation: The test compounds were diluted at half-log increments in assay buffer (imidazole, glycerol-2-phosphate, EGTA, MnCl2, MgCl2, BSA).
2) Bead preparation • a.) rinse beads by centrifuging at 500 g • b.) reconstitute the beads with PBS and EDTA to produce a 20% bead slurry
3) Pre-incubate reaction mix without substrate (assay buffer, DTT, ATP, ^33P ATP) and mix with substrate (assay buffer, DTT, ATP, ^33P ATP, peptide substrate) 30° C. for 15 min.
4) To start assay, pre-incubate 10 μL BTK in enzyme buffer (imidazole, glycerol-2-phosphate, BSA) and 10 μL of test compounds for 10 min at RT.
5) Add 30 μL reaction mixture without or with substrate to BTK and compounds.
6) Incubate 50 μL total assay mix for 30 min at 30° C.
7) Transfer 40 μL of assay to 150 μL bead slurry in filter plate to stop reaction.
8) Wash filter plate after 30 min, with following steps • a. 3 ×250 μL NaCl • b. 3×250 μL NaCl containing 1% phosphoric acid • c. 1×250 μL H2O
9) Dry plate for 1 h at 65° C. or overnight at RT
10) Add 50 μL microscint-20 and count ^33P cpm on scintillation counter.
Calculate percent activity from raw data in cpm percent activity=(sample−bkg)/(total activity−bkg)×100

Experiment [2] has as its target T2, Spleen Tyrosine Kinase (SYK) aa 360-635 (Homo sapiens, UniProt P43405).
T2 construct: truncated construct of Spleen Tyrosine Kinase aa 360-635; made in house
The experiment is described as follows: Determination of IC50 of Spleen Tyrosine Kinase (SYK) inhibition, 33P kinase assay. In kind it is biochemical. The following applies: recombinant human SYK360-635, 20 μM ATP. Here is the method: Determination of IC50 of Spleen Tyrosine Kinase (SYK) Inhibition
The SYK kinase assay is a standard kinase assay adapted to a 96 well plate format. This assay is performed in 96-well format for IC50 determination with 8 samples which represented 10 half log dilutions and a 40 μL reaction volume. The assay measures the incorporation of radiolabeled ^33P γATP into an N-terminally biotinylated peptide substrate, derived from naturally occurring phosphoacceptor consensus sequence (Biotin-11aa DY*E). Phosphorylated products were detected upon termination of reactions with EDTA and the addition of Streptavidin coated beads. • Assay plates: 96-well MultiScreen 0.65 um filter plates (Millipore Cat. No.: MADVNOB10) • Streptavidin coated beads: Streptavidin Sepharose TM, suspension 5.0 mL, in 50 mM EDTA/PBS diluted (1:100), (Amersham, Cat. No.: 17-5113-01) • Compounds: 10 mM in 100% dimethylsulfoxide (DMSO), final conc.: compound 0.003-100 uM in 10% DMSO • Enzyme: SYK RPA purified, truncated construct of Spleen Tyrosine Kinase aa 360-635, stock solution 1 mg/mL, MW: 31.2 KDa, final conc.:0.0005 μM. • Peptide 1: biotinylated peptide is derived from a naturally occurring phosphor-acceptor consensus sequence (Biotin-[…]), special order from QCB, stock solution 20 mM, final conc.: 5.0 μM. • ATP: Adenosine-5′-triphosphate 20 mM, (ROCHE Cat. No.:93202720), final concentration: 20 μM • Buffer: HEPES: 2-Hydroxyethyl piperazine-2-ethanesulfonic acid (Sigma, Cat. No.: H-3375) final concentration: 50 mM HEPES pH7.5 • BSA: Bovine Serum Albumin Fraction V, fatty acid free (Roche Diagnostics GmbH, Cat. No. 9100221) diluted to a final concentration of 0.1% • EDTA: EDTA stock solution 500 mM, (GIBCO, Cat. No.: 15575-038) final concentration: 0.1 mM • DTT: 1,4-Dithiothreitol (Roche Diagnostics GmbH, Cat. No.: 197777), final conc.: 1 mM • MgCl2×6H2O: MERCK, Cat. No.: 105833.1000, final concentration: 10 mM • Assay Dilution Buffer (ADB): 50 mM HEPES, 0.1 mM EGTA, 0.1 mM Na Vanadate, 0.1 mM β-glycerophosphate, 10 mM MgCl2, 1 mM DTT, 0,1% BSA, pH 7.5 • Bead wash buffer: 10 g/L PBS (Phosphate buffered saline) with 2M NaCl+1% phosphoric acid Experimental Method:
In 40 μL volume, 26 μL of ADB diluted, purified recombinant human SYK360-635 [0.5 nM] was mixed with 4 μL of 10× concentrations of the test compounds, [usually 100 μM-0.003 μM] in [10%] DMSO and the mixture was incubated for 10 min at RT.
The kinase reaction was initiated by the addition of 10 μL 4× substrate cocktail containing the DYE peptide substrate [0 or 5 μM], ATP [20 μM] and […] [2 μCi/rxn]. After incubation at 30° C. for 15 min, the reaction was terminated by the transfer of 25 μL of the reaction sample to a 96 well 0.65 um Millipore MADVNOB membrane/plate containing 200 μL 5 mM EDTA and 20% Streptavidine coated beads in PBS.
The unbound radionucleotides were washed under vacuum with 3×250 μL 2M NaCl; 2×250 μL 2M NaCl+1% phosphoric acid; 1×250 μL H2O. After the last wash membrane/plates were transferred to an adaptor plate, heat dried for 15 min at 60° C., and 50 μL scintillation cocktail was added to each well and 4 h later the amount of radioactivity was counted in a top counter.
The IC50 was calculated using a non-linear curve fit with XLfit software (ID Business Solution Ltd., Guilford, Surrey, UK). […] Representative results are in Table 1.

Several values for one entry are separate records, joined by “and”; a condition that tells them apart may be missing. Equal values may be shown once. Read-outs that look alike come from different tables or passages of the source.

T1 sequence (Q06187 whole entry): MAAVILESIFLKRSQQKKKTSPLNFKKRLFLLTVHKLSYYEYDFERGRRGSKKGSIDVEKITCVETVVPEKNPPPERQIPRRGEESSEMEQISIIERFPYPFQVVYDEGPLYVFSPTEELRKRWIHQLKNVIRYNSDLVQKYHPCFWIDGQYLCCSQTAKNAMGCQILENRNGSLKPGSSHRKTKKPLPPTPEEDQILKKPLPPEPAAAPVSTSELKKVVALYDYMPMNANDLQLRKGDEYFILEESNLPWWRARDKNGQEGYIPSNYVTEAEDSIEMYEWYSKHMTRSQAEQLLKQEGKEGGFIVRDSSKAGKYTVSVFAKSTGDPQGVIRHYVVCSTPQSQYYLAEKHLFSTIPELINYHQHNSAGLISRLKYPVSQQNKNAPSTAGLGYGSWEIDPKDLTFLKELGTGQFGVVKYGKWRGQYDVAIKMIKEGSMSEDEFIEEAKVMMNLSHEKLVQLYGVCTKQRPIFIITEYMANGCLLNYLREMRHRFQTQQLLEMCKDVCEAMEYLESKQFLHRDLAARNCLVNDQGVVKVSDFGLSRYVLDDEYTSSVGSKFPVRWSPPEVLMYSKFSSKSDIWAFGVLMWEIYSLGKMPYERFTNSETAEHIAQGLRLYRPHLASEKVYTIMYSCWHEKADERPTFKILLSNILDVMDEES

For orientation: IC50 means the point on the concentration scale where inhibition reaches its midpoint. With `Cc1cc(Nc2nn(C(C)C)c(=O)c3cc(N(C)Cc4ccncc4)ccc23)n[nH]1` [Example I-2, 2-Isopropyl-4-(5-methyl-1H-pyrazol-3-ylamino)-7-(methyl-pyridin-4-ylmethyl-amino)-2H-phthalazin-1-one], the half-maximal inhibitory concentration (IC50) in experiment [1] is 0.231 µM; in experiment [2] (read-out: IC50 (μM) SYK Assay), 0.392 µM.

Regarding `Cc1cc(Nc2nn(C(C)C)c(=O)c3cc(S(C)(=O)=O)ccc23)n[nH]1` [Example H-2, 2-Isopropyl-7-methanesulfonyl-4-(5-methyl-1H-pyrazol-3-ylamino)-2H-phthalazin-1-one], the values for the half-maximal inhibitory concentration (IC50) in experiment [1] and in experiment [2] (read-out: IC50 (μM) SYK Assay) were 1.11 µM and 4.29 µM, respectively.

`Cc1cc(Nc2nn(C(C)C)c(=O)c3cc(F)ccc23)n[nH]1` [Example E-2, 7-Fluoro-2-isopropyl-4-(5-methyl-1H-pyrazol-3-ylamino)-2H-phthalazin-1-one]: the results for the IC50 in experiment [1] and in experiment [2] (read-out: IC50 (μM) SYK Assay) were 9.53 µM and 7.61 µM, respectively.

For `Cc1cc(Nc2nn(Cc3csc(C)n3)c(=O)c3ccccc23)n[nH]1` [Example A-16, 4-(5-methyl-1H-pyrazol-3-ylamino)-2-(2-methyl-thiazol-4-ylmethyl)-2H-phthalazin-1-one], the IC50 in experiment [1] was determined as 25.2 µM; in experiment [2] (read-out: IC50 (μM) SYK Assay) it was 87.9 µM.

For `Cc1cc(Nc2nn(-c3ccc(Cl)cc3)c(=O)c3ccccc23)n[nH]1` [Example B-1, 2-(4-Chloro-phenyl)-4-(5-methyl-1H-pyrazol-3-ylamino)-2H-phthalazin-1-one], the values for the half-maximal inhibitory concentration (IC50) in experiment [1] and in experiment [2] (read-out: IC50 (μM) SYK Assay) were 5.03 µM and 1.19 µM, respectively.

For `COc1ccc2c(Nc3cc(C)[nH]n3)nn(C(C)C)c(=O)c2c1` [Example G-1, 2-Isopropyl-4-(5-methyl-1H-pyrazol-3-ylamino)-7-methoxy-2H-phthalazin-1-one], the IC50 in experiment [1] is 0.724 µM; in experiment [2] (read-out: IC50 (μM) SYK Assay), 0.793 µM.

For `Cc1cc(Nc2nn(C(C)C)c(=O)c3cc(CS(C)(=O)=O)ccc23)n[nH]1` [Example ZI-2, 2-Isopropyl-7-methanesulfonylmethyl-4-(5-methyl-1H-pyrazol-3-yl-amino)-2H-phthalazin-1-one], the half-maximal inhibitory concentration (IC50) in experiment [1] stood at 0.44 µM; in experiment [2] (read-out: IC50 (μM) SYK Assay), 0.894 µM.

With `Cc1cc(Nc2nn(Cc3cccc(C(=O)O)c3)c(=O)c3ccccc23)n[nH]1` [Example A-24, 3-[4-(5-methyl-1H-pyrazol-3-ylamino)-1-oxo-1H-phthalazin-2-ylmethyl]-benzoic acid], the 50% inhibitory concentration (IC50) stood at 1.75 µM in experiment [1] and 24.9 µM in experiment [2] (read-out: IC50 (μM) SYK Assay).

Regarding `Cc1cc(Nc2nn(Cc3cc(F)cc(F)c3)c(=O)c3ccccc23)n[nH]1` [Example A-21, 2-(3,5-difluoro-benzyl)-4-(5-methyl-1H-pyrazol-3-yl-amino)-2H-phthalazin-1-one], the IC50 in experiment [1] was 14.6 µM; in experiment [2] (read-out: IC50 (μM) SYK Assay), over 10 µM.

For `Cc1cc(Nc2nn(C(C)C)c(=O)c3cc(N4CCCCC4)ccc23)n[nH]1` [Example F-10, 2-Isopropyl-4-(5-methyl-1H-pyrazol-3-ylamino)-7-piperidin-1-yl-2H-phthalazin-1-one], the IC50 in experiment [1] was 0.608 µM; in experiment [2] (IC50 (μM) SYK Assay), 0.551 µM and 4.3 µM and 3.57 µM.

Turning to `Cc1cc(Nc2nn(C(C)C)c(=O)c3ccc(F)cc23)n[nH]1` [Example E-3, 6-Fluoro-2-isopropyl-4-(5-methyl-1H-pyrazol-3-ylamino)-2H-phthalazin-1-one], the IC50 in experiment [1] is 58.2 µM; in experiment [2] (read-out: IC50 (μM) SYK Assay) it was 87.5 µM.

Regarding `CC(=O)Nc1ccc2c(Nc3cc(C)[nH]n3)nn(C(C)C)c(=O)c2c1` [Example I-8, N-[3-Isopropyl-1-(5-methyl-1H-pyrazol-3-ylamino)-4-oxo-3,4-dihydro-phthalazin-6-yl]-acetamide], the IC50 in experiment [1] stood at 2.23 µM; in experiment [2] (read-out: IC50 (μM) SYK Assay), 5.62 µM.

Turning to `Cc1cc(Nc2nn(Cc3cc(F)ccc3F)c(=O)c3ccccc23)n[nH]1` [Example A-13, 2-(2,5-difluoro-benzyl)-4-(5-methyl-1H-pyrazol-3-yl-amino)-2H-phthalazin-1-one], the IC50 in experiment [1] was found to be 38.6 µM; in experiment [2] (read-out: IC50 (μM) SYK Assay) it was 22.9 µM.

In the case of `Cc1cc(Nc2nn(-c3ccc(C(C)(C)C)cc3)c(=O)c3ccccc23)n[nH]1` [Example A-8, 2-(4-tert-butyl-phenyl)-4-(5-methyl-1H-pyrazol-3-ylamino)-2H-phthalazin-1-one], the IC50 in experiment [1] amounted to 30 µM; in experiment [2] (read-out: IC50 (μM) SYK Assay), 0.552 µM.

Regarding `Cc1cc(Nc2nn(C(C)C)c(=O)c3ccc(N4CCOCC4)cc23)n[nH]1` [Example F-2, 2-Isopropyl-4-(5-methyl-1H-pyrazol-3-ylamino)-6-morpholino-2H-phthalazin-1-one], the IC50 in experiment [1] was over 100 µM; in experiment [2] (read-out: IC50 (μM) SYK Assay), 36.4 µM.

For the compound `Cc1cc(Nc2nn(C(C)C)c(=O)c3cc(C(=O)NC(C)C)ccc23)n[nH]1` [Example M-5, 3-Isopropyl-1-(5-methyl-1H-pyrazol-3-ylamino)-4-oxo-3,4-dihydro-phthalazine-6-carboxylic acid isopropylamide], the IC50 in experiment [1] amounted to 0.769 µM; in experiment [2] (read-out: IC50 (μM) SYK Assay), 2.16 µM.

Regarding `COc1ccc(Cn2nc(Nc3cc(C)[nH]n3)c3ccccc3c2=O)cc1` [Example A-11, 2-(4-methoxy-benzyl)-4-(5-methyl-1H-pyrazol-3-ylamino)-2H-phthalazin-1-one], the IC50 in experiment [1] amounted to 9.79 µM; in experiment [2] (read-out: IC50 (μM) SYK Assay), 49.2 µM.
